Data on five compounds can be found in publication PMC11819603, “Development of a reliable, sensitive, and convenient assay for the discovery of new eIF5A hypusination inhibitors” (PLOS ONE, 2025).

In assay [1] the test system is DHPS. As to conditions: ref 35; read-out: IC50; cited from earlier work.
Assay [2] relates to eIF5A hypusination in MCF7 cells. The assay can be described thus: eIF5A hypusination in intact MCF7 cells, Western blot. It is filed as cell-based, human. As to conditions: 40 μM, 24 h, Ctrl 100, 4 experiments. The protocol:
We tested the ability of the GC7 analogs to inhibit hypusination in intact cells. MCF-7 cells (Fig 5B), a classical model of breast cancer cell line, and HT29 cells (Fig 5C), a cell model of colorectal cancer, were treated with 40 μM of GC7, 1, 2, 3, and 4 for 24h. Cells were lysed and analyzed by Western blot. As observed, none of the molecules modified eIF5A expression. […] GC7 analogs inhibited hypusination from 35 to 55%.
The human breast cancer cell line MCF7 (HTB-22 ATCC) and colorectal adenocarcinoma HT29 (HTB-38 ATCC) were cultured in DMEM (Gibco) supplemented with 10% FBS (Dutscher), 10 U/mL penicillin, and […] streptomycin. 1 mM of aminoguanidine was added to the medium to inhibit the degradation of GC7 and polyamines by amine oxidase from the serum and the production of reactive oxygen species. Cells were maintained at 37°C, 5% CO2 in a humid atmosphere.
After treatment, cells were washed with ice-cold PBS and lysed in RIPA Buffer (50 mM Tris pH 7.5, 150 mM NaCl, 0.1% SDS, 0.5% Na Deoxycholate, 5 mM NaF, 2.5 mM Na4P2O7, 1% NP4O) containing a protease inhibitor cocktail (complete Roche). 10 μg of proteins were separated by SDS PAGE and transferred to a PVDF membrane (Immobilon-P Millipore). The membranes were probed with the appropriate primary antibody that was detected by horseradish peroxidase-conjugated secondary antibody (Jackson Immunoresearch) and visualized by chemiluminescence (ECL Amersham RPN 3244) using a Fuji LAS-4000 imager. ImageJ® software was used to quantify band intensity and the ratios of proteins of interest were normalized to a loading control. Full-length Western blots are provided in the supplementary data (S19, S20 Figs).

Assay [3] deals with T1, DHPS (Homo sapiens, UniProt P49366).
T1 construct: host or cells: E. coli BL21 (DE3)
T1 sequence (P49366 1-369): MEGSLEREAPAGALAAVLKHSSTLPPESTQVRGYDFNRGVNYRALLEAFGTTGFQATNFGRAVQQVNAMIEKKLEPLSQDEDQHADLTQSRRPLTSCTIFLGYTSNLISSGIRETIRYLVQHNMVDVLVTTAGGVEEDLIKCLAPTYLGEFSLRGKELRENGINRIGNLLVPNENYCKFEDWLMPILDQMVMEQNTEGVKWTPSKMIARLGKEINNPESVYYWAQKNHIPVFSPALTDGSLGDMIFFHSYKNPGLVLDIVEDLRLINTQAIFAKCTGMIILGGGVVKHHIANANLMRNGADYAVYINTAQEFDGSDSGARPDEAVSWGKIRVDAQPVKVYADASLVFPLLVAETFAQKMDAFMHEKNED
As to the kind of experiment: Hyp'Assay: cell-free eIF5A hypusination in 96-well plates (recombinant eIF5A, DHPS, DOHH; anti-hypusine antibody Hpu24), substance present in the DHPS step. It is filed as biochemical. As to conditions: for concentration from which inhibition of hypusination was detectable / hypusination signal, Mean (quantification from Figure 5A): 5 μM spermidine; for hypusination signal, Mean (quantification from Figure 5A): control 98,5. The protocol: The principle of the Hyp’Assay (Fig 2A) is to perform eIF5A hypusination reaction in 96-well plates, allow eIF5A to adsorb to the plate, incubate with an anti-hypusine antibody and a secondary antibody conjugated to HRP and reveal hypusination using TMB as a substrate.
(§1) […] Then 10 μL containing 1 μg of DOHH with 10 μM Fe^2+ (H8FeN2O8S2^. 6H2O) were added. After 1 h proteins were analyzed by Western Blot using antibodies toward DHPS, DOHH, Hypusine, and eIF5A.
(§2) The cell-free reaction described in 4.4 is performed in triplicates in a 96-wells plate (MaxiSorp, ThermoFisher) in the presence of 3 μg of eIF5A, 2 μg of DHPS, and 2 μg of DOHH by well. The reaction product, hypusinated eIF5A, is adsorbed onto the plate overnight at 4°C. The plate is washed (100 μL/well) thrice with PBS-T (PBS– 0.05% Tween20), then saturated with 1% non-fat dry milk in PBS-T for 2 h at room temperature. The plate is washed thrice with PBS-T and incubated overnight at 4°C with the anti-hypusine antibody (1:2000 in saturation buffer, 50 μL/well). The next day and after 5 washes with PBS-T, HRP-coupled anti-rabbit secondary antibody diluted 1:5000 in saturation buffer (50 μL/well) is added for 2 h at room temperature.

A further assay relates to human DHPS. Particulars: read-out: Km of human DHPS for spermidine, cited from earlier work.
In the next assay the target is T2, DOHH (Homo sapiens, UniProt Q9BU89).
T2 construct: pelB leader (N); host or cells: E. coli BL21 (DE3)
T2 sequence (Q9BU89 1-302): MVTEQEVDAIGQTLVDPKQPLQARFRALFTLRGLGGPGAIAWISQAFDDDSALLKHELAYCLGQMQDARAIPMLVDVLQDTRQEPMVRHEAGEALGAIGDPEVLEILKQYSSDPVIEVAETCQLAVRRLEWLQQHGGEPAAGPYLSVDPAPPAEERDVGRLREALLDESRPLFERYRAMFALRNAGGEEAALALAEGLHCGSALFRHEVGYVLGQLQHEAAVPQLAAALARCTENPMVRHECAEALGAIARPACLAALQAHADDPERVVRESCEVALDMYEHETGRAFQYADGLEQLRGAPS
As to the kind of experiment: Hyp'Assay, substance added after the deoxyhypusination reaction (DOHH step). It is filed as biochemical. Particulars: control 100,0. The protocol: We then tested the ability of DOHH inhibitors to inhibit eIF5A hypusination using the Hyp’Assay. During the Hyp’Assay, DOHH inhibitors were added after the deoxyhypusination reaction.
To address this issue, we compared the ability of GC7 to inhibit DHPS or DOHH by adding GC7 during the first step of the Hyp’Assay; when DHPS mediates the deoxyhypusination reaction (Fig 2A), or only during the second step, when DOHH hydroxylate deoxyhypusinated eIF5A. […] When finding new hypusination inhibitors adding them during the first or the second step of the Hyp’Assay will allow us to determine if the inhibition affects DHPS or DOHH. Another way to discriminate between DHPS or DOHH inhibitors would be to use Hpu98, an antibody that recognized both hypusinated and deoxyhypusinated eIF5A, instead of Hpu24, which is specific for hypusinated eIF5A [18]. […] We performed a new Hyp’Assay by omitting DOHH in the reaction mix and using the Hpu98 antibody. First, we performed a dose response experiment with spermidine at pH: 8.0 and 9.0 (Fig 3E). […] We also tested the ability of GC7 (Fig 3F) and CPX or EDTA (Fig 3G) to inhibit DHPS.
as §1, §2

Assay [4] addresses T1, DHPS. The assay can be described thus: Hyp'Assay without DOHH: deoxyhypusination of eIF5A revealed with Hpu98 antibody. Type of assay: biochemical.
From the text: To address this issue, we compared the ability of GC7 to inhibit DHPS or DOHH by adding GC7 during the first step of the Hyp’Assay; when DHPS mediates the deoxyhypusination reaction (Fig 2A), or only during the second step, when DOHH hydroxylate deoxyhypusinated eIF5A. […] This confirms the specificity of GC7 towards DHPS. When finding new hypusination inhibitors adding them during the first or the second step of the Hyp’Assay will allow us to determine if the inhibition affects DHPS or DOHH. Another way to discriminate between DHPS or DOHH inhibitors would be to use Hpu98, an antibody that recognized both hypusinated and deoxyhypusinated eIF5A, instead of Hpu24, which is specific for hypusinated eIF5A [18]. […] We performed a new Hyp’Assay by omitting DOHH in the reaction mix and using the Hpu98 antibody. First, we performed a dose response experiment with spermidine at pH: 8.0 and 9.0 (Fig 3E). The Hyp’Assay allows the detection of deoxyhypusinated eIF5A in a spermidine-dependent manner. Under these conditions, deoxyhypusination was equally efficient at both pH tested. […] We also tested the ability of GC7 (Fig 3F) and CPX or EDTA (Fig 3G) to inhibit DHPS. […] This provided us with another method to distinguish between DHPS and DOHH inhibitors.
as §2

Setting [5] is: concentration 1 (no unit on page; Fig 5A 0 to 1 mM).
Where [6] appears, read: concentration 10 (no unit on page; Fig 5A 0 to 1 mM).
The mark [7] stands for this setting: concentration 100 (no unit on page; Fig 5A 0 to 1 mM).
The mark [8] stands for this setting: concentration 1000 (no unit on page; Fig 5A 0 to 1 mM).

A word on the IC50: it is the concentration at which inhibition is half-maximal. What is called Km is the substrate concentration at which the rate is half of its maximum. What is called EC50 is the concentration needed to bring the measured effect to its halfway point.

Like-named read-outs stand apart in the source and are kept apart here.

In the case of `COc1ccccc1Oc1c(Cl)nc(-c2ccc(I)cc2)nc1Cl` [GL-1, 4,6-dichloro-2-(4-iodophenyl)-5-(2-methoxyphenoxy)pyrimidine], the IC50 in the assay with DHPS [1] was 210 nM.
`N=C(N)NCCCCCCO` [compound 2, 6-hydroxyhexylguanidine]: the “hypusinated eIF5A, Western blot quantification, Mean (Figure 5B)” value (“hypusinated eIF5A” for short) in assay [2] came out at 44.5. Further, the “concentration from which inhibition of hypusination was detectable” value (“concentration from which inhibition” below) on DHPS [3] turned out to be 1 µM. Also, the “hypusination signal, Mean (quantification from Figure 5A)” value is on record as 81,3 on DHPS [3] (setting [5]), 64,4 on DHPS [3] (setting [6]), 59,1 on DHPS [3] (setting [7]) and 44,6 on DHPS [3] (setting [8]).
Consider `N=C(N)NCCCCCCCO` [compound 3, 7-hydroxyheptylguanidine], for which the “hypusinated eIF5A” value in assay [2] is 50.5. Besides, the “concentration from which inhibition” value at DHPS [3] is 1 µM. The “hypusination signal, Mean (quantification from Figure 5A)” value on DHPS [3] (setting [5]) was 75,7; at DHPS [3] (setting [6]) it was 65,6; at DHPS [3] (setting [7]), 63,6; on DHPS [3] (setting [8]), 58,2.
For the compound `N=C(N)NCCCCCCCCO` [compound 4, 8-hydroxyoctylguanidine], the “hypusinated eIF5A” value in assay [2] was found to be 64.75. Further, the “concentration from which inhibition” value at DHPS [3] came to 100 µM. The “hypusination signal, Mean (quantification from Figure 5A)” value at DHPS [3] (setting [5]) was 109,4; on DHPS [3] (setting [6]), 86,9; on DHPS [3] (setting [7]), 67,2; at DHPS [3] (setting [8]) it was 64,0.
Turning to `NCCCCNCCCN` [spermidine], the Michaelis constant (Km) in the assay with human DHPS (ref 23) is 4 µM; in the assay on human DHPS (ref 24), 7.6 µM. Moreover, the “hypusination signal, Mean (quantification from Figure 3C)” value on DOHH (concentration 1 (no unit on page; Fig 3C dose-response 0 to 100 μM)) is recorded as 84,83; on DOHH (concentration 10 (no unit on page; Fig 3C dose-response 0 to 100 μM)), 82,59. Besides, the “deoxyhypusination signal, Mean (quantification from Figure 3E)” value on DHPS [4] (pH: 8.0, spermidine 1 µM as substrate) is listed as 0,00; at DHPS [4] (pH: 8.0, spermidine 10 µM as substrate) it was 50,47; at DHPS [4] (pH: 8.0, spermidine 100 µM as substrate) it was 87,29; on DHPS [4] (pH: 8.0, spermidine 1000 µM as substrate), 98,05; on DHPS [4] (pH: 8.0, spermidine 10000 µM as substrate) it was 100,00; on DHPS [4] (pH: 9.0, spermidine 1 µM as substrate), 0,00. Moreover, the “deoxyhypusination signal, Mean (quantification from Figure 3E)” value at DHPS [4] (pH: 9.0, spermidine 10 µM as substrate) is 51,14; on DHPS [4] (pH: 9.0, spermidine 100 µM as substrate), 85,89. Besides, the EC50 at DHPS [3] stood at 5000 nM. Besides, the “hypusination signal with the substance as substrate, Mean (quantification from Figure S3)” value at DHPS [3] (substrate concentration 0,01 (mM)) is reported as 1,46; at DHPS [3] (substrate concentration 0,1 (mM)), 31,22; at DHPS [3] (substrate concentration 0,0001 (mM)), -0,19; at DHPS [3] (substrate concentration 0,001 (mM)) it was -0,21; at DHPS [3] (substrate concentration 1 (mM)) it was 68,32; at DHPS [3] (substrate concentration 10 (mM)) it was 100,00. Besides, the “hypusination signal with the substance as substrate, Mean (quantification from Figure S3)” value at DHPS [3] (substrate concentration 100 (mM)) is 86,96; on DHPS [3] (substrate concentration 1000 (mM)) it was 66,59.
